Experimental data published in patent US20250320213A1, “Nitrogen-Containing Heterocyclic Compounds” (Pfizer Inc., priority 2024, published 2025).

How the values were obtained:
STAT6 = target: T1, STAT6 (Homo sapiens, UniProt P42226); test: STAT6 Reporter Luciferase Assay (IL-13 stimulated HaCaT keratinocyte NanoLuc reporter cells); type: cell-based; details: IL-13 stimulated HaCaT STAT6 NanoLuc reporter cells; read-out: Reporter EC50
T1 construct: stably transfected HaCaT keratinocyte cell line, which expresses NanoLuc luciferase reporter gene under the transcriptional control of the STAT6 responsive promoter; endogenous in cells; host or cells: HaCaT keratinocyte reporter cell line (stably transfected with a NanoLuc reporter)
T1 sequence (P42226 1-847): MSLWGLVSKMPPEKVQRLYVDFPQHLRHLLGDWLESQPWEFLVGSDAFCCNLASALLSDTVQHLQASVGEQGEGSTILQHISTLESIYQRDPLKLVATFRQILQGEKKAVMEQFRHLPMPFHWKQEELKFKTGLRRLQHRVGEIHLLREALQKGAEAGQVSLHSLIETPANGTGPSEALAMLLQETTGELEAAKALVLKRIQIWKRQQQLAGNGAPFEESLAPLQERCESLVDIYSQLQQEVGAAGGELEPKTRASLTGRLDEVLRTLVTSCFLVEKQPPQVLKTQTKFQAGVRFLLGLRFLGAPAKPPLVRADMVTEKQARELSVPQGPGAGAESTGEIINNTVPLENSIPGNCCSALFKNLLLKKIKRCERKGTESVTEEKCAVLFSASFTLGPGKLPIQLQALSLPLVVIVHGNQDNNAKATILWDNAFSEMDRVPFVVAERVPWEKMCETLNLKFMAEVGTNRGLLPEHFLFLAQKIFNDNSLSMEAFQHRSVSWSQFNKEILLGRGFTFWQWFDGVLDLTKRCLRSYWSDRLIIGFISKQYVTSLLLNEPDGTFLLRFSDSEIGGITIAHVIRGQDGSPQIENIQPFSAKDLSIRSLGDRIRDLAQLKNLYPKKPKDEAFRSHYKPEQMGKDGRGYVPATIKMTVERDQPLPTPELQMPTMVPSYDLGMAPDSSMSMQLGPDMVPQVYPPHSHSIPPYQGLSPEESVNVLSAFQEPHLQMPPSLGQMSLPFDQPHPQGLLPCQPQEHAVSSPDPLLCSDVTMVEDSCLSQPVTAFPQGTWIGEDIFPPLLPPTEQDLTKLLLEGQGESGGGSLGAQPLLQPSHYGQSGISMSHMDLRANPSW
Procedure, shortened: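 HaCaT cells stably carrying a NanoLuc reporter driven by the STAT6-responsive IL-13Ra2 promoter were preincubated with compounds for 2 h at 37 °C in 2% FBS medium. Cells were then stimulated with 0.12 nM IL-13 for 4 h, and luminescence was read after Nano-Glo substrate. Compounds ran as 11-point 4-fold dilutions in duplicate.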

[1] = system: CCL17 secretion in peripheral human whole blood; test: Human Whole Blood (HWB) CCL17 TR-FRET Assay (IL-13 stimulated CCL17 secretion); type: cell-based; details: Homo sapiens, 48 h, human whole blood, 10 ng/mL IL13, 48 hours
Procedure, shortened: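 Heparin-anticoagulated human blood; cpd 11-pt 3-fold dilution, duplicate, 2 h 37 °C preinc; IL-13 10 ng/mL final, 48 h 37 °C; spin, serum CCL17 by TR-FRET ELISA, 16 h RT, 665/615 ratio; IC50.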

| SMILES | EC50 (STAT6) | IC50 [1] |
| --- | --- | --- |
| CCn1nc(C(=O)NCc2ccc(NC(=O)N(C)C)cc2)c2c1C1(CC1)CN(c1ccc(C(=O)N(C)C)cn1)C2 [Example 555, 5′-(5-(dimethylcarbamoyl)pyridin-2-yl)-N-(4-(3,3-dimethylureido)benzyl)-1′-ethyl-1′,4′,5′,6′-tetrahydrospiro[cyclopropane-1,7′-pyrazolo[4,3-c]pyridine]-3′-carboxamide] | 5 nM | 52 nM |
| CC(C)n1nc(C(=O)NCc2ccc(NC(N)=O)cc2)c2c1[C@@H](C)CN(c1ncc(-c3nccn3C)cn1)C2 [Example 562, (S)-1-isopropyl-7-methyl-5-(5-(1-methyl-1H-imidazol-2-yl)pyrimidin-2-yl)-N-(4-ureidobenzyl)-4,5,6,7-tetrahydro-1H-pyrazolo[4,3-c]pyridine-3-carboxamide] | 3 nM | 8 nM |
| CN[C@@H]1CCCN(C(=O)Nc2ccc(CNC(=O)c3nn(C(C)C)c4c3CN(c3ccc(C(=O)N(C)C)cc3)C[C@@H]4C)cc2F)C1 [Example 568, (S)-5-(4-(dimethylcarbamoyl)phenyl)-N-(3-fluoro-4-((R)-3-(methylamino)piperidine-1-carboxamido)benzyl)-1-isopropyl-7-methyl-4,5,6,7-tetrahydro-1H-pyrazolo[4,3-c]pyridine-3-carboxamide] | 2 nM | 13 nM |
| CN[C@H]1CCCN(C(=O)Nc2ccc(CNC(=O)c3nn(C(C)C)c4c3CN(c3ccc(C(=O)N(C)C)cc3)C[C@@H]4C)cc2F)C1 [Example 569, (S)-5-(4-(dimethylcarbamoyl)phenyl)-N-(3-fluoro-4-((S)-3-(methylamino)piperidine-1-carboxamido)benzyl)-1-isopropyl-7-methyl-4,5,6,7-tetrahydro-1H-pyrazolo[4,3-c]pyridine-3-carboxamide] | 4 nM | 20 nM |
| CC(C)n1nc(C(=O)NCc2ccc(NC(=O)N3CC[C@](C)(N)C3)cc2)c2c1[C@@H](C)CN(c1ccc(C(=O)N(C)C)cc1)C2 [Example 570, (S)-N-(4-((S)-3-amino-3-methylpyrrolidine-1-carboxamido)benzyl)-5-(4-(dimethylcarbamoyl)phenyl)-1-isopropyl-7-methyl-4,5,6,7-tetrahydro-1H-pyrazolo[4,3-c]pyridine-3-carboxamide] | 3 nM | 27 nM |
| CN[C@H]1CCN(C(=O)Nc2ccc(CNC(=O)c3nn(C(C)C)c4c3CN(c3ccc(C(=O)N(C)C)cc3)C[C@@H]4C)cc2)C1 [Example 571, (S)-5-(4-(dimethylcarbamoyl)phenyl)-1-isopropyl-7-methyl-N-(4-((S)-3-(methylamino)pyrrolidine-1-carboxamido)benzyl)-4,5,6,7-tetrahydro-1H-pyrazolo[4,3-c]pyridine-3-carboxamide] | 4 nM | 20 nM |
| CC(C)n1nc(C(=O)NCc2ccc(NC(=O)N3CC[C@@](C)(N)C3)cc2)c2c1[C@@H](C)CN(c1ccc(C(=O)N(C)C)cc1)C2 [Example 572, (S)-N-(4-((R)-3-amino-3-methylpyrrolidine-1-carboxamido)benzyl)-5-(4-(dimethylcarbamoyl)phenyl)-1-isopropyl-7-methyl-4,5,6,7-tetrahydro-1H-pyrazolo[4,3-c]pyridine-3-carboxamide] | 3 nM | 20 nM |
| CC(C)n1nc(C(=O)NCc2ccc(NC(=O)N3CCCNCC3)c(F)c2)c2c1[C@@H](C)CN(c1ccc(C(=O)N(C)C)cc1)C2 [Example 576, (S)-N-(4-(1,4-diazepane-1-carboxamido)-3-fluorobenzyl)-5-(4-(dimethylcarbamoyl)phenyl)-1-isopropyl-7-methyl-4,5,6,7-tetrahydro-1H-pyrazolo[4,3-c]pyridine-3-carboxamide] | 4 nM | 19 nM |
| CNC1(C)CN(C(=O)Nc2ccc(CNC(=O)c3nn(C(C)C)c4c3CN(c3ccc(C(=O)N(C)C)cc3)C[C@@H]4C)cc2)C1 [Example 581, (S)-5-(4-(dimethylcarbamoyl)phenyl)-1-isopropyl-7-methyl-N-(4-(3-methyl-3-(methylamino)azetidine-1-carboxamido)benzyl)-4,5,6,7-tetrahydro-1H-pyrazolo[4,3-c]pyridine-3-carboxamide] | 3 nM | 24 nM |

Results, then the molecule that gave them:

| EC50 (STAT6) | IC50 [1] | SMILES |
| --- | --- | --- |
| 2 nM | 15 nM | CC(C)n1nc(C(=O)NCc2ccc(NC(=O)N3CCNCC3)c(F)c2)c2c1[C@@H](C)CN(c1ccc(C(=O)N(C)C)cc1)C2 [Example 566, (S)-5-(4-(dimethylcarbamoyl)phenyl)-N-(3-fluoro-4-(piperazine-1-carboxamido)benzyl)-1-isopropyl-7-methyl-4,5,6,7-tetrahydro-1H-pyrazolo[4,3-c]pyridine-3-carboxamide] |
| 1 nM | 13 nM | CC(C)n1nc(C(=O)NCc2ccc(NC(=O)N3CCCN(C)CC3)cc2)c2c1[C@@H](C)CN(c1ccc(C(=O)N(C)C)cc1)C2 [Example 567, (S)-5-(4-(Dimethylcarbamoyl)phenyl)-1-isopropyl-7-methyl-N-(4-(4-methyl-1,4-diazepane-1-carboxamido)benzyl)-4,5,6,7-tetrahydro-1H-pyrazolo[4,3-c]pyridine-3-carboxamide] |
| 0.5 nM | 11 nM | CC(C)n1nc(C(=O)NCc2ccc(NC(=O)N3CCN4CCC[C@@H]4C3)cc2)c2c1[C@@H](C)CN(c1ccc(C(=O)N(C)C)cc1)C2 [Example 574, (S)-5-(4-(dimethylcarbamoyl)phenyl)-1-isopropyl-7-methyl-N-(4-((R)-octahydropyrrolo[1,2-a]pyrazine-2-carboxamido)benzyl)-4,5,6,7-tetrahydro-1H-pyrazolo[4,3-c]pyridine-3-carboxamide] |
| 1 nM | 10 nM | CC(C)n1nc(C(=O)NCc2ccc(NC(=O)N3CCN4CCC[C@H]4C3)cc2)c2c1[C@@H](C)CN(c1ccc(C(=O)N(C)C)cc1)C2 [Example 575, (S)-5-(4-(dimethylcarbamoyl)phenyl)-1-isopropyl-7-methyl-N-(4-((S)-octahydropyrrolo[1,2-a]pyrazine-2-carboxamido)benzyl)-4,5,6,7-tetrahydro-1H-pyrazolo[4,3-c]pyridine-3-carboxamide] |
| 1 nM | 4 nM | COC[C@H]1CN(C(=O)Nc2ccc(CNC(=O)c3nn(C(C)C)c4c3CN(c3ccc(C(=O)N(C)C)cc3)C[C@@H]4C)cc2)CCN1 [Example 577, (S)-5-(4-(dimethylcarbamoyl)phenyl)-1-isopropyl-N-(4-((R)-3-(methoxymethyl)piperazine-1-carboxamido)benzyl)-7-methyl-4,5,6,7-tetrahydro-1H-pyrazolo[4,3-c]pyridine-3-carboxamide] |
| 0.5 nM | 5 nM | COC[C@@H]1CN(C(=O)Nc2ccc(CNC(=O)c3nn(C(C)C)c4c3CN(c3ccc(C(=O)N(C)C)cc3)C[C@@H]4C)cc2)CCN1 [Example 578, (S)-5-(4-(dimethylcarbamoyl)phenyl)-1-isopropyl-N-(4-((S)-3-(methoxymethyl)piperazine-1-carboxamido)benzyl)-7-methyl-4,5,6,7-tetrahydro-1H-pyrazolo[4,3-c]pyridine-3-carboxamide] |
| 0.4 nM | 8 nM | CC(C)n1nc(C(=O)NCc2ccc(NC(=O)NCC(F)F)cc2)c2c1[C@@H](C)CN(c1ccc(C(=O)N(C)C)cn1)C2 [Example 579, (S)-N-(4-(3-(2,2-difluoroethyl)ureido)benzyl)-5-(5-(dimethylcarbamoyl)pyridin-2-yl)-1-isopropyl-7-methyl-4,5,6,7-tetrahydro-1H-pyrazolo[4,3-c]pyridine-3-carboxamide] |
| 1 nM | 11 nM | CC(C)n1nc(C(=O)NCc2ccc(NC(=O)N3CCN(C)CC3)c(F)c2)c2c1[C@@H](C)CN(c1ccc(C(=O)N(C)C)cc1)C2 [Example 580, (S)-5-(4-(dimethylcarbamoyl)phenyl)-N-(3-fluoro-4-(4-methylpiperazine-1-carboxamido)benzyl)-1-isopropyl-7-methyl-4,5,6,7-tetrahydro-1H-pyrazolo[4,3-c]pyridine-3-carboxamide] |
